# Source: US11019816B2, “Composition comprising cinmethylin-containing microparticles and a further herbicide” (BASF Agro B.V., priority 2017, dated 2021)
# Assays:
# Alopecurus myosuroides = test: Field trial, post-emergence herbicidal activity; type: in vivo; details: ALOMY, 31 DAT
# Experimental: (§1) Winter wheat was seeded in different soils ranging from sandy loam to clay loam soil containing 2.1-5.5% of organic matter.
# (§2) For the post emergence treatment, the plants were first grown up to the 2 leaf stage (BBCH 12). Here, the herbicidal compositions were suspended or emulsified in water as distribution medium and sprayed using finely distributing nozzels.
# (§3) The herbicidal activity for the individual herbicidal compositions (solo and mixture applications) was assessed 31 days after treatment (DAT).
# (§4) The evaluation for the damage on winter wheat and undesired weeds caused by the tested compositions was carried out using a scale from 0 to 100%, compared to the untreated control plants. Here, 0 means no damage and 100 means complete destruction of the plants.
# Capsella bursa-pastoris = test: Field trial, post-emergence herbicidal activity; type: in vivo; details: CAPBP, 31 DAT
# Experimental: as §1, §2, §3, §4
# Lamium amplexicaule = test: Field trial, post-emergence herbicidal activity; type: in vivo; details: LAMAM, 31 DAT
# Experimental: as §1, §2, §3, §4
# Matricaria inodora = test: Field trial, post-emergence herbicidal activity; type: in vivo; details: MATIN, 31 DAT
# Experimental: as §1, §2, §3, §4
# Raphanus raphanistrum = test: Field trial, post-emergence herbicidal activity; type: in vivo; details: RAPRA, 31 DAT
# Experimental: as §1, §2, §3, §4
# [1] = at 20° C.; cited from earlier work
# Triticum aestivum = test: Field trial, phytotoxicity (damage) on winter wheat; details: TRZAW (winter wheat, crop damage), post-emergence, 31 DAT
# Experimental: as §2
# Cinmethylin was used in the solo application as an emulsion concentrate with an active ingredient concentration of 750 g/l.
# The mixture of cinmethylin and picolinafen as an emulsifiable concentrate was prepared from cinmethylin as an emulsifiable concentrate (EC) and picolinafen as a water dispersable granule (WG) having an active ingredient concentration of 500 g/l and 50 g/l, respectively.
# as §3, §4
SMILES,herbicidal activity (Alopecurus myosuroides; use rate 500 g ai/ha) [%],herbicidal activity (Capsella bursa-pastoris; use rate 500 g ai/ha) [%],herbicidal activity (Lamium amplexicaule; use rate 500 g ai/ha) [%],herbicidal activity (Matricaria inodora; use rate 500 g ai/ha) [%],herbicidal activity (Raphanus raphanistrum; use rate 500 g ai/ha) [%],solubility in water [1] [g/L],herbicidal activity (Triticum aestivum; use rate 500 g ai/ha) [%],herbicidal activity (Triticum aestivum; use rate 1000 g ai/ha) [%],herbicidal activity (Alopecurus myosuroides; use rate 50 g ai/ha) [%],herbicidal activity (Capsella bursa-pastoris; use rate 50 g ai/ha) [%],herbicidal activity (Lamium amplexicaule; use rate 50 g ai/ha) [%],herbicidal activity (Matricaria inodora; use rate 50 g ai/ha) [%],herbicidal activity (Raphanus raphanistrum; use rate 50 g ai/ha) [%],herbicidal activity (Triticum aestivum; use rate 50 g ai/ha) [%],herbicidal activity (Triticum aestivum; use rate 100 g ai/ha) [%]
"Cc1ccccc1CO[C@@H]1C[C@@]2(C(C)C)CC[C@]1(C)O2 (racemic) [cinmethylin, (±)-2-exo-(2-methylbenzyloxy)-1-methyl-4-isopropyl-7-oxabicyclo[2.2.1]heptane]",100,65,53,62,10,0.063,0,0,,,,,,,
"O=C(Nc1ccc(F)cc1)c1cccc(Oc2cccc(C(F)(F)F)c2)n1 [picolinafen (WG), picolinafen]",,,,,,,,,0,96,94,69,98,0,0
